± gives the expanded uncertainty stated by the source.
Details: 298.15 K; for viscosity / mass density: 100 kPa, Liquid; for viscosity: Capillary tube (Ostwald / Ubbelohde) method; for mass density: Vibrating tube method
[1] = Kruss K11 tensiometer with Wilhelmy plate

Row | viscosity [mPa·s] | surface tension liquid-gas (Kruss K11 tensiometer and Wilhelmy plate) [mN/m] | Compound | surface tension liquid-gas [1] [mN/m] | mass density [kg/m3]
1 | 1.359 ± 0.015 | – | CCCCCCCCCCCC [dodecane] | 24.9 ± 0.2 | 745.23 ± 0.14
2 | 0.899 ± 0.01 | 72 ± 0.2 | O [water] | – | –

Row | Compound | viscosity [mPa·s] | surface tension liquid-gas (Kruss K11 tensiometer and Wilhelmy plate) [mN/m] | surface tension liquid-gas [1] [mN/m] | mass density [kg/m3]
3 | CCCCCCCCCCCCCC[P+](CCCCCC)(CCCCCC)CCCCCC.N#C[N-]C#N [tetradecyl(trihexyl)phosphonium dicyanamide] | 437.8 ± 17 | – | 33.1 ± 0.4 | 897.36 ± 0.72
